# What was measured:
# DAT [1] = molecular target: DAT (Macaca fascicularis, UniProt Q9GJT6); assay: MicroPET imaging in anesthetized cynomolgus monkeys; assay type: in vivo; conditions: anesthetized cynomolgus monkey
# DAT [2] = assay: HRRT PET imaging in an awake rhesus monkey; assay type: in vivo; conditions: HRRT PET images
# Sequence of DAT (Macaca fascicularis, UniProt Q9GJT6) (Q9GJT6 whole entry): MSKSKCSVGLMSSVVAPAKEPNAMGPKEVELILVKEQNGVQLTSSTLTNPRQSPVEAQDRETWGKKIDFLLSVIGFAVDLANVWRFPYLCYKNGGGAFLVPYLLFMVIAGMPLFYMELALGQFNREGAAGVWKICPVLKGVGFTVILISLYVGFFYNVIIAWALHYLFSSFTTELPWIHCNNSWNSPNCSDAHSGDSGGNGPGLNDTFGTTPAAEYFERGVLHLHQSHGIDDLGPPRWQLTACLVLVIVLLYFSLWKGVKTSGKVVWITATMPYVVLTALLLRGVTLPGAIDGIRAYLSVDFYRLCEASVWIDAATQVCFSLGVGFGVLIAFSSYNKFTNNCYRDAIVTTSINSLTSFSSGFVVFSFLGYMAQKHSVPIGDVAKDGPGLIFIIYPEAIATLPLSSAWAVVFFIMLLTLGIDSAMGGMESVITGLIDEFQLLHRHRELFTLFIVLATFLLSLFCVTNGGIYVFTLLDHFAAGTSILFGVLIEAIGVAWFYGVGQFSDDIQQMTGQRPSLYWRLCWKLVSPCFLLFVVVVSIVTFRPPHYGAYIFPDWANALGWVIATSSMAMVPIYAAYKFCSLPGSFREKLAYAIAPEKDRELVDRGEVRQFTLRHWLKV
smiles,measurement,setting,value
"COC(=O)C1C(c2ccc(F)cc2)CC2CCC1N2C/C=C/C[18F] (stereo not drawn) [[^18F]9, A-((E)-4-[^18F]fluorobut-2-en-1-yl)-2β-carbomethoxy-3β-(4′-fluorophenyl)nortropane]",Displacement of radiotracer in chase study,DAT [1]; 19 (RTI-113•HCl) 0.3 mg/kg at 90 min post-injection,complete displacement
same,Time to peak uptake in the putamen,DAT [1]; microPET baseline,≤ 20 min
same,Time to peak uptake in the substantia nigra,DAT [1]; microPET baseline,≤ 10 min
same,Defluorination (radioactivity in the skull),DAT [1]; microPET images,low degree of defluorination
same,Defluorination (visualization of the skull),DAT [2],some degree of defluorination

# Source: article PMC3756492 (Journal of medicinal chemistry, 2010)
